Laboratory results as given in paper doi:10.1101/2024.08.19.608619, “Discovery of potent SARS-CoV-2 nsp3 macrodomain inhibitors uncovers lack of translation to cellular antiviral response” (bioRxiv, 2024).
Read-outs that look alike come from different tables or passages of the source.

Legend:
SARS-CoV-2 nsp3-mac1 [1] = molecular target: T1, SARS-CoV-2 nsp3-mac1 (Severe acute respiratory syndrome coronavirus 2, UniProt P0DTD1); assay: biochemical; assay type: biochemical; conditions: SARS-CoV-2 nsp3 macrodomain TR-FRET single point, concentration 50.0 uM
SARS-CoV-2 nsp3-mac1 [2] = molecular target: T1, SARS-CoV-2 nsp3-mac1; assay: biochemical; set-up: SARS-CoV-2 nsp3 macrodomain TR-FRET single point, per cent inhibition, n=2

| SMILES | perc_inhibition_mean (SARS-CoV-2 nsp3-mac1 [1]) [%] | other results |
| --- | --- | --- |
| Cc1nc(NC(=O)[C@@H]2CCCOC2)c2ccnc-2[nH]1 [ASAP-0000078] | -3.202 | inhibition at 50 µM (SARS-CoV-2 nsp3-mac1 [2]; read-out: perc_inhibition_mean, batch_name=ASAP-0000078-001): -3.2% |
| O=C(Nc1cnc2[nH]ncc2c1)c1cc(C2CC2)[nH]c1C1CC1 [ASAP-0000079] | -23.613 | inhibition at 50 µM (SARS-CoV-2 nsp3-mac1 [2]; read-out: perc_inhibition_mean, batch_name=ASAP-0000079-001): -23.6% |
| O[C@H]1C[C@](CNc2ncnc3[nH]ccc23)(c2ccccc2)C1 [ASAP-0000080] | 11.369 | inhibition at 50 µM (SARS-CoV-2 nsp3-mac1 [2]; read-out: perc_inhibition_mean, batch_name=ASAP-0000080-001): 11.4% |
| Cc1[nH]c2ncnc(NC(=O)CCc3ccccc3)c2c1C [ASAP-0000081] | 5.021 | inhibition at 50 µM (SARS-CoV-2 nsp3-mac1 [2]; read-out: perc_inhibition_mean, batch_name=ASAP-0000081-001): 5.02% |
| CCC[C@@](C)(NC(=O)c1ncnc2[nH]ccc12)C(=O)OC [ASAP-0000082] | -6.621 | inhibition at 50 µM (SARS-CoV-2 nsp3-mac1 [2]; read-out: perc_inhibition_mean, batch_name=ASAP-0000082-001): -6.62% |
| Oc1ccccc1CNc1ncnc2[nH]cnc12 [ASAP-0000083] | 1.904 | inhibition at 50 µM (SARS-CoV-2 nsp3-mac1 [2]; read-out: perc_inhibition_mean, batch_name=ASAP-0000083-001): 1.9% |
| Cc1nn(Cc2ccccc2)c(C)c1CNc1ncnc2[nH]ncc12 [ASAP-0000084] | -1.755 | inhibition at 50 µM (SARS-CoV-2 nsp3-mac1 [2]; read-out: perc_inhibition_mean, batch_name=ASAP-0000084-001): -1.75% |
| c1ccc2sc([C@@H]3CCCN(c4ncnc5[nH]ccc45)C3)nc2c1 [ASAP-0000085] | -0.779 | inhibition at 50 µM (SARS-CoV-2 nsp3-mac1 [2]; read-out: perc_inhibition_mean, batch_name=ASAP-0000085-001): -0.779% |
| COc1ccc(Nc2ncnc3[nH]ncc23)c(OC)c1 [ASAP-0000086] | 2.597 | inhibition at 50 µM (SARS-CoV-2 nsp3-mac1 [2]; read-out: perc_inhibition_mean, batch_name=ASAP-0000086-001): 2.6% |
| CCc1nc(CN(C)c2nc(C)nc3[nH]ccc23)cs1 [ASAP-0000087] | -6.131 | inhibition at 50 µM (SARS-CoV-2 nsp3-mac1 [2]; read-out: perc_inhibition_mean, batch_name=ASAP-0000087-001): -6.13% |
| FC(F)(F)c1nc(NC[C@H]2CCCO2)c2nc[nH]c2n1 [ASAP-0000088] | 2.501 | inhibition at 50 µM (SARS-CoV-2 nsp3-mac1 [2]; read-out: perc_inhibition_mean, batch_name=ASAP-0000088-001): 2.5% |
| COCc1nc(CNc2c(C#N)c(C)nn2C)cs1 [ASAP-0000089] | 0.8 | inhibition at 50 µM (SARS-CoV-2 nsp3-mac1 [2]; read-out: perc_inhibition_mean, batch_name=ASAP-0000089-001): 0.8% |
| Cc1[nH]c2ncnc(NC(=O)[C@@H]3CCO[C@@H]3C)c2c1C [ASAP-0000090] | 35.092 | inhibition at 50 µM (SARS-CoV-2 nsp3-mac1 [2]; read-out: perc_inhibition_mean, batch_name=ASAP-0000090-001): 35.1% |
| O=C1CC[C@H](COC(=O)c2ncnc3[nH]ccc23)CCN1 [ASAP-0000091] | -7.865 | inhibition at 50 µM (SARS-CoV-2 nsp3-mac1 [2]; read-out: perc_inhibition_mean, batch_name=ASAP-0000091-001): -7.87% |
| c1ccc2c(-c3c[nH]c4ncccc34)n[nH]c2c1 [ASAP-0000092] | -7.254 | inhibition at 50 µM (SARS-CoV-2 nsp3-mac1 [2]; read-out: perc_inhibition_mean, batch_name=ASAP-0000092-001): -7.25% |
| CCO[C@@H]1C[C@@H](Nc2ncnc3[nH]ccc23)C12CCOCC2 [ASAP-0000093] | 2.316 | inhibition at 50 µM (SARS-CoV-2 nsp3-mac1 [2]; read-out: perc_inhibition_mean, batch_name=ASAP-0000093-001): 2.32% |
| O=C1C[C@@]2(CCCN(c3ncnc4[nH]ccc34)C2)CN1 [ASAP-0000094] | -2.451 | inhibition at 50 µM (SARS-CoV-2 nsp3-mac1 [2]; read-out: perc_inhibition_mean, batch_name=ASAP-0000094-001): -2.45% |
| Cn1nc(NCc2cc3c(=O)[nH]ccc3o2)c2nccnc21 [ASAP-0000095] | -1.007 | inhibition at 50 µM (SARS-CoV-2 nsp3-mac1 [2]; read-out: perc_inhibition_mean, batch_name=ASAP-0000095-001): -1.01% |
| Cn1ncc2c(NCc3ncccc3O)ncnc21 [ASAP-0000096] | 3.893 | inhibition at 50 µM (SARS-CoV-2 nsp3-mac1 [2]; read-out: perc_inhibition_mean, batch_name=ASAP-0000096-001): 3.89% |
| O=S(=O)(Nc1ncccn1)c1ccc2oc3ccccc3c2c1 [ASAP-0000097] | -3.004 | inhibition at 50 µM (SARS-CoV-2 nsp3-mac1 [2]; read-out: perc_inhibition_mean, batch_name=ASAP-0000097-001): -3% |
| COCc1nc(CNc2ncc3c(n2)COC3)cs1 [ASAP-0000098] | -7.137 | inhibition at 50 µM (SARS-CoV-2 nsp3-mac1 [2]; read-out: perc_inhibition_mean, batch_name=ASAP-0000098-001): -7.14% |
| Cn1nc(NC(=O)c2cc(-c3ccco3)[nH]n2)c2nccnc21 [ASAP-0000099] | -5.398 | inhibition at 50 µM (SARS-CoV-2 nsp3-mac1 [2]; read-out: perc_inhibition_mean, batch_name=ASAP-0000099-001): -5.4% |
| O=S(=O)(NC[C@H]1CCOC1)c1cn2c(n1)CCCC2 [ASAP-0000100] | -3.203 | inhibition at 50 µM (SARS-CoV-2 nsp3-mac1 [2]; read-out: perc_inhibition_mean, batch_name=ASAP-0000100-001): -3.2% |
| Cc1nc2cnccn2c1NC(=O)c1cc(-c2ccco2)[nH]n1 [ASAP-0000101] | -3.884 | inhibition at 50 µM (SARS-CoV-2 nsp3-mac1 [2]; read-out: perc_inhibition_mean, batch_name=ASAP-0000101-001): -3.88% |
